pKi: −log10 of the molar value. Marks after values point to notes of the source that are not given here.
Key:
[1] = test system: choice of the large-but-delayed reward (impulsivity); assay: Rat T-maze procedure: large-but-delayed vs small-but-immediate reward; type: in vivo; conditions: juvenile Wistar rats
Description: Subjects. male Wistar AF rats (28-41 days old) (Centre d′Elevage René Janvier, France) were used. […] During the whole study, tap water was provided ad libitum. Food was restricted to 5-10 g/day/animal in order to maintain animals at 65-75% of their free feeding weight
Experimental procedure. The experiments were performed in two identical T-maze apparatus constructed from opaque grey plastic tubing and consisting of a starting runway (30 cm long) and two arms (35 cm long) each leading to a rectangular black plastic goal box (18 cm large, 30 cm wide, 10 cm high). Removable grey plastic guillotine doors could be inserted into the vertical clefts, situated at the entry of the starting runway and at each end of the arms. One of the goal-boxes (left or right, depending on the rats) was constantly provided with a large reward, the other with a small reward. Large and small rewards consisted, respectively, of 5 and 1 pellets (20 mg, Technical & Scientific Equipment GmbH, Germany). The pellets were placed in a translucent food-cup before each trial.
First phase: habituation. Animals were first subjected to two 5-min sessions of habituation. The rat was gently introduced in the starting runway, which then was closed with a guillotine door inserted in the cleft (referred to as c0 in FIG. 1). The animal was allowed to freely explore the apparatus and to eat food rewards placed in the food cups.
Second phase: pretraining. After a door was placed in the cleft c2 near each goal-box, the rat was introduced in the starting runway. When it entered one of the two arms, a door was inserted behind it in the cleft c1 near the choice area and the door placed in cleft c2 was removed. As soon as the animal entered the goal-box, the door was placed again in the cleft c2. The rat was removed from the goal-box as soon as the pellets were eaten (usually within less than 1 min). The animal was then returned to its home cage for an intertrial interval of 2 to 3 min. Each rat was submitted one to five times/day to five trials sessions in this procedure. Training was initiated when the rat selected the arm giving access to the large reward in more than 14 out of 15 trials.
Third phase: training. Rats underwent one to five times/day five trials training sessions during which a delay was introduced before access to the large reward. After a door was placed in the cleft c2 near each goal-box, the rat was introduced in the starting runway. When it entered one of the two arms, a second door was inserted behind it in the cleft c1 near the choice area, so that rat selecting the arm leading to the large reward could be detained in this arm for a period (referred to as the waiting delay) before having access to the reinforcement. Otherwise, if the animal selected the arm leading to the small reward, the door placed in the cleft c2 was immediately opened, allowing the animal to enter the goal-box. At the beginning of training, the waiting delay was 30 sec. Then, if the percentage of choices of the large and delayed reward remained high (i.e. ≧40%) for more than six sessions, it was increased to 45 sec, and if necessary to 60 sec, 90 sec and finally 120 sec. Drug testing began when the animal selected the large and delayed reward in two trials out of five (or less) in two consecutive sessions and in one trial out of five (or less) in the following session.
Drug testing was conducted over six consecutive test-sessions of five trials each, during which the access to the large reward was preceded by the waiting delay. Test sessions were: Two control pre-drug sessions: control pre-drug session 1 and control pre-drug session 2; Two drug sessions: drug session 1 and drug session 2; Two control post-drug sessions: control post-drug session 1 and control post-drug session 2.

[2] = molecular target: T1, noradrenergic α1A receptor (UniProt P18130); assay: 3H-Prazosin binding assay, receptor expressed in baby hamster kidney cells; conditions: read-out: Ki, affinity towards noradrenergic α1A receptors
T1 sequence (P18130 1-466): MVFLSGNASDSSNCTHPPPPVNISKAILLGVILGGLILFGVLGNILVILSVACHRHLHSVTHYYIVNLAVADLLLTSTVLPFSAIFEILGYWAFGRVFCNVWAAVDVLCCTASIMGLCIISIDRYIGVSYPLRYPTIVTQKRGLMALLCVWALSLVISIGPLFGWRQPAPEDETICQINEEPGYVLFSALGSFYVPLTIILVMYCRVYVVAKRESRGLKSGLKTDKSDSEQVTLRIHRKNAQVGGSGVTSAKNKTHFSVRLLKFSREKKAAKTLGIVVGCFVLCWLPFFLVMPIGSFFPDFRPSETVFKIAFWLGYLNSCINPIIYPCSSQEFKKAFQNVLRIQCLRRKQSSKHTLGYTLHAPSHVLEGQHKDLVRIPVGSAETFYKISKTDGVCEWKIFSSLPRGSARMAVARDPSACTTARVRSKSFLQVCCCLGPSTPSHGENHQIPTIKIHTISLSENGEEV

[3] = test system: social behaviours in the rat Tetradic Encounter test; assay: Rat Tetradic Encounter test; conditions: for % of time Agonistic behaviour: sum of defensive and aggressive behaviour
Description: Subjects. 5 week old male Wistar rats (Harlan, Germany) were used. The animals were housed in groups of four animals per cage and kept under a 12 h/12 h light dark rhythm (start of the dark phase at 2:00 p.m., CET), at 20° C. room temperature and 60% humidity. During the whole study, standard diet and tap water was provided ad libitum.
Experimental procedure. […] Therefore, half of the cage is the home territory of each animal. At test time, the wall is removed from the cage so that the animals can interact with each other for 15 minutes. Both animals are from the same test group. The cage is illuminated by dim red light. The test starts 1 hour after beginning of the dark phase. All animals are marked individually by means of black symbols on their back. Behaviour is registered by video. Each animal is tested once.
Analyses. In both the TE test and the MRI test, the portion of time (%) spent in non-social, friendly, defensive, aggressive or agonistic (sum of defensive and aggressive behaviour) behaviour was compared across the experimental groups against the relevant control group by means of Analysis of Variance (ANOVA) (one-factor).

baseline motility = assay: Baseline motility in mice (vehicle-pretreated, vehicle-challenged); type: in vivo, mouse; conditions: s.c., Std. Dev. in brackets
Description: Subjects. Male NMRI mice (Charles River) weighing approx. 35 g are used. […] 12 mice are used pr experimental group.
Experimental procedure. All mice are pre-treated once daily for five days with either d-amphetamine sulphate (2.5 mg/kg s.c.) or saline (10 ml/kg). For the 17 days between the last day of pre-treatment and the test day, the animals are kept in their homecage receiving the care as described above. The experiment is performed under normal light conditions in an undisturbed room. The mice are treated with test substance or vehicle and placed individually in the test cages for 30 min. The mice are then challenged with D-amphetamine sulphate (1.25 mg/kg s.c.) or saline (5 ml/kg) and replaced in the test-cage and data acquisition is begun. 5×8 infrared light sources and photocells interspaced by 4 cm monitor the locomotor activity. The light beams cross the cage 1.8 cm above the bottom of the cage.
Administration of compounds.
Data analyses. […] Similarly an ED50 for inhibiting baseline motility is calculated by expressed the motility response in vehicle-pretreated, vehicle-challenged, drug-treated animals relative to the baseline motility response. A therapeutic index value is subsequently calculated by dividing the first ED50 by the second.

basal locomotor activity = assay: Basal locomotor activity inhibition (motility inhibition) in the rat; type: in vivo; conditions: basal locomotor activity without stimulant (sedative properties), std. dev. in brackets
Description: Subjects. Male Wistar rats (Taconic, Denmark) weighing 170-240 g are used. The animals are housed under a 12-hr light/dark cycle under controlled conditions for regular in-door temperature (21±2° C.) and humidity (55±5%) with food and tap water available ad libitum.
Experimental procedure. The experiment is made in normal light conditions in an undisturbed room. […] Immediately after injection of the stimulant, the rats are placed individually in the test cages that are placed in a U-frame, equipped with 4 infrared light sources and photocells. The light beams cross the cage 4 cm above the cage floor. Recording of a motility count requires interruption of adjacent light beams, thus avoiding counts induced by stationary movements of the rat. Motility (counts) is recorded for a period of 2 hours. […] The 100 percent effect of stimulant drug is accordingly calculated to be total motility counts minus baseline. […] The percent responses are converted to percent inhibition from which ED50 values are calculated by means of log-probit analyses. In a parallel set of data, the potential sedative properties (exemplified by basal locomotor activity inhibition) of the test compounds are evaluated using essentially the same procedure with the exception of not administering the stimulant drug at the initiation of locomotor assessment.

[4] = 2 mg/kg s.c. 30 min before test
[5] = 10 mg/kg s.c. 30 min before test

SMILES: CCOC(=O)Nc1ccc(NCc2ccc(F)cc2)cc1N [Compound 1, reference compound]
- % Choice of the large but delayed reward on Drug sessions ([1]; 5 mg/kg s.c. 30 min before the test): 26.7 ± 3.3 %
- % Choice of the large but delayed reward on Control sessions ([1]; placebo administered before control (pre-drug and post-drug) sessions of the same group): 10.8 ± 2.0%
- pKi [2]: 5.70
- % of time Aggressive behaviour [3, 4]: 5.2 % of time
- % of time Defensive behaviour [3, 4]: 7.2 % of time
- % of time Friendly behaviour [3, 4]: 21.9 % of time
- % of time Non-social behaviour [3, 4]: 65.7 % of time
- % of time Agonistic behaviour [3, 4]: 12.4 % of time
- % of time Aggressive behaviour [3, 5]: 2.4 % of time
- % of time Defensive behaviour [3, 5]: 3.7* % of time
- % of time Friendly behaviour [3, 5]: 24.7 % of time
- % of time Non-social behaviour [3, 5]: 69.2 % of time
- % of time Agonistic behaviour [3, 5]: 6.1* % of time
- Inhibition of baseline motility, ED50 (baseline motility): 7.6 (1.3) mg/kg
- Motility inhibition ED50 (mg/kg) ± std. dev. (basal locomotor activity): >8.1 mg/kg
